# Reference: US20150322051A1, “Macrocyclic picolinamides as fungicides” (Dow AgroSciences LLC, priority 2014, published 2015)
# Key:
# Assay type in all cases: in vivo
# Conditions in all cases: 1 Day Protectant
# [1] = system: Glomerella lagenarium; anamorph: Colletotrichum lagenarium (COLLLA); test: Cucumber anthracnose (COLLLA) whole-plant fungicidal test
# Description: (§1) All fungicides were evaluated using the aforementioned method for their activity vs. all target diseases, unless stated otherwise. Wheat leaf blotch and brown rust activity were also evaluated using track spray applications, in which case the fungicides were formulated as EC formulations, containing 0.1% Trycol 5941 in the spray solutions. Wheat plants (variety Yuma) were grown from seed in a greenhouse in 50% mineral soil/50% soil-less Metro mix until the first leaf was fully emerged, with 7-10 seedlings per pot. These plants were inoculated with an aqueous spore suspension of Septoria tritici either prior to or after fungicide treatments. After inoculation the plants were kept in 100% relative humidity (one day in a dark dew chamber followed by two to three days in a lighted dew chamber at 20° C.) to permit spores to germinate and infect the leaf. The plants were then transferred to a greenhouse set at 20° C. for disease to develop. When disease symptoms were fully expressed on the 1st leaves of untreated plants, infection levels were assessed on a scale of 0 to 100 percent disease severity. Percent disease control was calculated using the ratio of disease severity on treated plants relative to untreated plants. Cucumber seedlings (variety Bush Pickle) were propagated in soil-less Metro mix, with each pot having one plant, and used in the test when 12 to 14 days old. […]
# [2] = system: Venturia inaequalis (VENTIN); test: Apple scab (VENTIN) whole-plant fungicidal test
# [3] = system: Blumeria graminis f. sp. hordei; synonym: Erysiphe graminis f. sp. hordei (ERYSGH); test: Barley powdery mildew (ERYSGH) whole-plant fungicidal test
# Description: as §1, with “Barley” for “Cucumber”, “Harrington)” for “Bush Pickle)”, “8 to 12 plants,” for “one plant,”, “first leaf was fully emerged.” for “12 to 14 days old.”
# [4] = system: Alternaria solani (ALTESO); test: Tomato early blight (ALTESO) whole-plant fungicidal test
# Description: as §1, with “Tomato plants” for “Cucumber seedlings”, “Outdoor Girl)” for “Bush Pickle)”, “used” for “used in the test”
# [5] = system: Rhyncosporium secalis (RHYNSE); test: Barley scald (RHYNSE) whole-plant fungicidal test
# Description: as §1, with “Barley” for “Cucumber”, “Harrington)” for “Bush Pickle)”, “8 to 12 plants,” for “one plant,”, “first leaf was fully emerged.” for “12 to 14 days old.”
smiles,measurement,setting,value
CCCC[C@@H]1[C@@H](Cc2ccc(C(F)(F)F)cc2)CCC[C@H](NC(=O)c2nccc(OC)c2OCOC(C)=O)C(=O)O[C@H]1C [Compound 3],Disease Control at 100 ppm COLLLA 1DP,[1],A (>70)
same,Disease Control at 100 ppm VENTIN 1DP,[2],A (>70)
same,Disease Control at 100 ppm ERYSGH 1DP,[3],A (>70)
same,Disease Control at 100 ppm ALTESO 1DP,[4],A (>70)
same,Disease Control at 100 ppm RHYNSE 1DP,[5],B (≦70)
